Reference: patent publication US5986131A, “RXR selective ligands” (Hoffmann-La Roche Inc., priority 1997, dated 1999)
pEC50, pIC50: −log10 of the molar value.

What was measured:
human sebaceous cells = test: Antiproliferative activity on human sebocytes in vitro; type: cell-based; details: Homo sapiens, 240 h; first passage cells; 10 days of exposure; read-out: Inhibition of human sebaceous cell proliferation in vitro IC50
Protocol: Sebaceous cells were isolated from adult human sebaceous glands by a combination of enzymatic and mechanical methods (Doran et al., 1991). The cells were cultured in Iscove's medium containing 10% fetal calf serum and 4 μg/ml dexamethasone on a layer of growth-arrested 3T3 mouse fibroblasts. Cells were plated in medium without the test compound and then given test compound in fresh medium 24-48 hours after the initial plating. The cultures were given fresh medium, containing the test compound, every 48 hours. On the day of harvesting, the cultures were rinsed with 0.03% EDTA in PBS, to remove only the 3T3 fibroblasts. followed by incubation in 0.05% trypsin/0.03% EDTA. The cells were suspended, mixed vigorously to prepare a single cell suspension and counted in a hemocytometer.
Stock solutions of compounds were made up as 10^-2 M solutions in 100% DMSO and stored at -20° C. in the dark. Compounds in solution were brought to room temperature and used by diluting directly into complete medium to the appropriate concentration.
The compounds of Example 12, Example 2, and Example 4 were tested for their effects on inhibiting the proliferation of first passage human sebaceous cells in vitro after 10 days of exposure to drug.

[1] = system: retinoic acid X receptors ("RXR"); details: cited from earlier work
[2] = system: Hamster Ear Sebaceous Gland; test: Effect on size of sebaceous glands of Golden Syrian hamsters; type: in vivo; design: Sebaceous Gland Size: unit not given here; details: 4 weeks topical dosing
Protocol: Charles River Golden Syrian male hamsters were given the desired dose in acetone. The compounds were stored at 4° C. protected from light. Fresh solutions were made up weekly.
Hamsters were dosed daily for five days, rested for two days, and dosed again for five days until 20 doses were given. The volume of solution was 50 microliters per ear.
Hamsters were sacrificed by CO2 inhalation, and the ears removed for histological evaluation. One ear was removed and the ventral surface separated from the rest of the ear. A 2 mm punch was removed 5 mm from the tip of the ear and stained in 0.1 % Sudan Black B dissolved in 100% propylene glycol overnight. After destaining, the size of sebaceous glands was quantified with a Donsanto Image Analysis System.
Data are given as the average area of 80-120 sebaceous glands per dose, as percent of the control (solvent-treated) sections.

[3] = system: nuclear retinoic acid receptors ("RAR"); details: cited from earlier work
Rhino mouse utricles = test: Rhino mouse utricle reduction activity; type: in vivo, Rhino mice; details: topical; for Utricle Size: 3 weeks; for Utricle size % Change from Control: ns = not statistically significant, others p<0.05
Protocol: Compounds were dissolved in 100% acetone and stored at 4° C. for the duration of the experiment under nitrogen. […] One day after the last dose, the mice were sacrificed by CO2 inhalation. […] The epidermis was then separated from the dermis.
The samples were kept in each of the above solutions for 2 hours. The skin samples were removed from the xylene and mounted on glass microscope slides. Image analysis, using the Ultimage image analysis software, was used to determine the mean diameter and area of utricles. Approximately 5 fields per sample were examined, for an average of 150 utricles per mouse measured.

RARα [4] = biological target: T1, RARα (Homo sapiens, UniProt P10276); test: RARα activation (transactivation); type: cell-based; details: Table 6
T1 sequence (P10276 1-462): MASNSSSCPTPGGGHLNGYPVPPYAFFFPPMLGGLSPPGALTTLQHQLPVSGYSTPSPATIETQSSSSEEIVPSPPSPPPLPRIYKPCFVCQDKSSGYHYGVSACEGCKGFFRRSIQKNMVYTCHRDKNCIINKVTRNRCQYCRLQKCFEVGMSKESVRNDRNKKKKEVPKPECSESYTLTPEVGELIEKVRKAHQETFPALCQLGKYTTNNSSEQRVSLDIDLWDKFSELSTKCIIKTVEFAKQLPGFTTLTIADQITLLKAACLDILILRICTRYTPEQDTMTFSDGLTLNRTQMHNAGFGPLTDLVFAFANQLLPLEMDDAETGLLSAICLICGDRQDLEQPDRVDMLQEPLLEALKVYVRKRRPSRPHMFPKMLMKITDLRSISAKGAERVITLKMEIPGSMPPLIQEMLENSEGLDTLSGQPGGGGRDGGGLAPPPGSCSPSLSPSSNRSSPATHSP
Text: (§1) Methods essentially as described in those publications were used to determine the binding and transactivation properties of retinoids reported in the Examples herein.

RAR β [5] = biological target: T2, RAR β (Homo sapiens, UniProt P10826); test: RARβ activation (transactivation); type: cell-based; details: Table 6
T2 sequence (P10826 1-455): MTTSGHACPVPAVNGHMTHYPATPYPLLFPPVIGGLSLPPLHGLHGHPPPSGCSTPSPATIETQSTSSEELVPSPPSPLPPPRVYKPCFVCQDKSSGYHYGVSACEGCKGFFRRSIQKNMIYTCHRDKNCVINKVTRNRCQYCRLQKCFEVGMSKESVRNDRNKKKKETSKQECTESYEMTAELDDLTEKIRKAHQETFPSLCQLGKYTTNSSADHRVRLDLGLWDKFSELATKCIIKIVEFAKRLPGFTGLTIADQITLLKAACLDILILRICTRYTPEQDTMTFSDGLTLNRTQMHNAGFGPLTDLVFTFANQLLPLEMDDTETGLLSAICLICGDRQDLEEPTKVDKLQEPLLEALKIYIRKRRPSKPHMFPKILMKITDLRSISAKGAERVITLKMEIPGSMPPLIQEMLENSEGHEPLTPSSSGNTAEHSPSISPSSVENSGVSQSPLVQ
Text: (§2) Methods for determining the binding and transactivation properties of retinoids with regard to the RAR receptors and RXR receptors are known in the art, e.g., Levin et al., Nature, 355:359-361 (Jan. 23, 1992); Allenby et al., Proc. Natl. Acad. Sci. USA, 90:30-34 (January, 1993); Allenby et al., J. Biol. Chem., 269:16689-16695 (Jun. 17, 1994). Methods essentially as described in those publications were used to determine the binding and transactivation properties of retinoids reported in the Examples herein.
(§3) Retinoid receptor binding and transactivation assays were performed on Compound B and Example 6 as described above.

RAR γ [6] = biological target: T3, RAR γ (Homo sapiens, UniProt P13631); test: RARγ activation (transactivation); type: cell-based; details: Table 6; @ 1000 nM; read-out: RAR Activation % max (γ)
T3 sequence (P13631 1-454): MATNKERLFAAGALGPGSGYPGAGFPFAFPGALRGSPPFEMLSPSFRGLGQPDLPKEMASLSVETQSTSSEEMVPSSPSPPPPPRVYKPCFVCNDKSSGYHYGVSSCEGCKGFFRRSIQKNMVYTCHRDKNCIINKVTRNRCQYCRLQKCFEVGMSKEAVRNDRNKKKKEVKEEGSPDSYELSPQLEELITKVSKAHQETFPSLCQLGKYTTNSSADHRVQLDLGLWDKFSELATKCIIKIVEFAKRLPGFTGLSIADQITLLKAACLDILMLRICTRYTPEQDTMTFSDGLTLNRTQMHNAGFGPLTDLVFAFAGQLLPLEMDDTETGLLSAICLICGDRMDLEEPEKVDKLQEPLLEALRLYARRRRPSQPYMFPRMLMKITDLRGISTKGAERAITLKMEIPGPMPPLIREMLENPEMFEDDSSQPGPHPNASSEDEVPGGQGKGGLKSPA
Text: as §2, §3

RARα [7] = biological target: T1, RARα; test: RARα binding; details: Table 6; read-out: RAR Binding IC50 (α)
Text: as §1

RAR γ [8] = biological target: T3, RAR γ; test: RARγ binding; details: Table 6
Text: as §2, §3

RAR β [9] = biological target: T2, RAR β; test: RARβ binding; details: Table 6
Text: as §2, §3

RXRα = biological target: T4, RXRα (Homo sapiens, UniProt P19793); test: RXRα activation (transactivation); type: cell-based; details: Table 6; @ 1000 nM; read-out: RXR Activation % max (α)
T4 sequence (P19793 1-462): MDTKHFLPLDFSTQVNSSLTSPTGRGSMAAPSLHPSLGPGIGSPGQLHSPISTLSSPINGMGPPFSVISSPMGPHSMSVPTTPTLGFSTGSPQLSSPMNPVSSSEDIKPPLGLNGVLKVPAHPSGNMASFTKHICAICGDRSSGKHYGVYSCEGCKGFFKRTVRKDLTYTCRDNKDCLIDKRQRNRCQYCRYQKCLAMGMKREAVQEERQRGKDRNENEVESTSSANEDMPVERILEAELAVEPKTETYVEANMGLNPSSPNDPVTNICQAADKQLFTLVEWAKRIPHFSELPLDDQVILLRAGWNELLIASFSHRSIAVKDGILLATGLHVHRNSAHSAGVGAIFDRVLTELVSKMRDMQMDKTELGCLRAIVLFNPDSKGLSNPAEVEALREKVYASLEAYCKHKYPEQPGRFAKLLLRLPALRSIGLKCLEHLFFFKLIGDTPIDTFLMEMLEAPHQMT
Text: as §1

T47-D = T47-D breast carcinoma cell growth inhibition (MTT), combination; type: cell-based, human; details: Compound B plus constant concentration of Example 6; FIG. 7
Protocol: The compound of Example 6 was tested for its ability to inhibit a human breast carcinoma cell line in combination with a retinoid having RARα activity, all-E-3,7-dimethyl-9-[(2-methoxy-4-methyl-6-octyloxy)phenyl]-2,4,6,8-nonatetraenoic acid (Compound B), as shown: [drawing 7]
Breast carcinoma cell line, T47-D, obtained from the ATCC [Accession No. HTB133] was grown in RPMI 1640 media supplemented with 10% FBS, 10 μg/ml insulin and 13 ng/ml gentamicin, and incubated at 37° C., 4.5% CO2 and 95.5% humidified air. The cells were harvested upon reaching 70-80% confluency and pelleted. The cells were resuspended in the media and seeded (150 μl/well) into 96-well plates (Corning) at a density allowing linear growth over a seven day assay period (i.e., T47-D seeded at 4×10^3 cells/well). […]
Liquid was removed by aspiration, 50 μl 95% ethanol was added, and the plates were shaken (Mini-Orbital Shaker, Bellco) for 15 minutes to solubilize the formazan product. The optical density of each well was measured using an automatic plate reader (Microplate EL320 Reader, Bio-Tek Instruments) with a test wavelength of 570 nm and a reference wavelength of 660 nm. The amount of cell growth inhibition caused by various concentrations of Compound B in combination with a constant concentration of the compound of Example 6 was determined in accordance with the following equation: [formula]

CC1=C(/C=C/C(C)=C/C=C/C(C)=C\C(=O)O)C(C)(C)CCC1 [13-cis-retinoic acid, reference compound]
pIC50 (human sebaceous cells): 7.00
binding to RXR (in words) [1]: do not
Sebaceous Gland Size ([2]; 1 μg/day): 14029 ± 2977
Sebaceous gland size % Change from Control ([2]; 1 μg/day, ns = not statistically significant): -15%
Sebaceous Gland Size ([2]; 10 μg/day): 12965 ± 2029
Sebaceous gland size % Change from Control ([2]; 10 μg/day, ns = not statistically significant): -21%
Sebaceous Gland Size ([2]; 100 μg/day): 10459 ± 1302
Sebaceous gland size % Change from Control ([2]; 100 μg/day): -37%
binding to RAR (in words) [3]: bind to RARα
Utricle Size (Rhino mouse utricles; 0.1 μg/day): 9187 ± 794 μm^2 / utricle
Utricle size % Change from Control (Rhino mouse utricles; 0.1 μg/day): -6%
Utricle Size (Rhino mouse utricles; 1 μg/day): 6400 ± 424 μm^2 / utricle
Utricle size % Change from Control (Rhino mouse utricles; 1 μg/day): -34%
Utricle Size (Rhino mouse utricles; 10 μg/day): 3793 ± 368 μm^2 / utricle
Utricle size % Change from Control (Rhino mouse utricles; 10 μg/day): -61%
Utricle Size (Rhino mouse utricles; 100 μg/day): 3132 ± 305 μm^2 / utricle
Utricle size % Change from Control (Rhino mouse utricles; 100 μg/day): -68%

CCCCCCCCOc1cc(C)cc(OC)c1/C=C/C(C)=C/C=C/C(C)=C/C(=O)O [Compound B, all-E-3,7-dimethyl-9-[(2-methoxy-4-methyl-6-octyloxy)phenyl]-2,4,6,8-nonatetraenoic acid]
pEC50 (RARα [4]; read-out: RAR Activation EC50 (α)): 7.96
pEC50 (RAR β [5]): 8.28
Emax at 1 µM (RAR γ [6]): 48%
pIC50 (RARα [7]): 6.62
pIC50 (RAR γ [8]): < 5.00
pIC50 (RAR β [9]): 6.30
Emax at 1 µM (RXRα): 0%

CC1=C(/C=C/C2=C(/C=C/C(C)=C/C(=O)O)CCCCC2)C(C)(C)CCC1 [Example 6, (2E,4E)-3-Methyl-5-(2-((E)-2(2,6,6-trimethyl-1-cyclohexen-1-yl)ethenyl)-1-cyclohepten-1-yl)-2,4-pentadienoic acid]
antiproliferative activity in breast cancer cell line in combination (potentiation of Compound B) (T47-D): Enhanced antiproliferative activity
Emax at 1 µM (RARα [4]; @ 1000 nM, read-out: RAR Activation % max (α)): 4%
Emax at 1 µM (RAR β [5]; @ 1000 nM, read-out: RAR Activation % max (β)): 8%
Emax at 1 µM (RAR γ [6]): 9%
